Test [1] concerns the target T1, HAC1 catalytic domain (recombinant HAC1) (Arabidopsis thaliana, UniProt Q9C5X9).
T1 construct: HAT catalytic domain aa 1081-1517 (nt 3241-4551 of CDS), C-terminal 6xHis tag, pET28a, E. coli BL21(DE3), partially purified, 52 kDa
The test is described as follows: colorimetric antibody-based HAT activity assay (EpiGentek P-4003), […] nm. The test is classed as biochemical.

Test [2] deals with T1, HAC1 catalytic domain (recombinant HAC1). The test is described as above. It is filed as biochemical. The conditions noted are these: kit HAT substrate as acetyl acceptor, 45 min at 37 °C; partially purified enzyme.

The inhibition is the share of the control response that was lost under treatment.

T1 sequence (Q9C5X9 1081-1517): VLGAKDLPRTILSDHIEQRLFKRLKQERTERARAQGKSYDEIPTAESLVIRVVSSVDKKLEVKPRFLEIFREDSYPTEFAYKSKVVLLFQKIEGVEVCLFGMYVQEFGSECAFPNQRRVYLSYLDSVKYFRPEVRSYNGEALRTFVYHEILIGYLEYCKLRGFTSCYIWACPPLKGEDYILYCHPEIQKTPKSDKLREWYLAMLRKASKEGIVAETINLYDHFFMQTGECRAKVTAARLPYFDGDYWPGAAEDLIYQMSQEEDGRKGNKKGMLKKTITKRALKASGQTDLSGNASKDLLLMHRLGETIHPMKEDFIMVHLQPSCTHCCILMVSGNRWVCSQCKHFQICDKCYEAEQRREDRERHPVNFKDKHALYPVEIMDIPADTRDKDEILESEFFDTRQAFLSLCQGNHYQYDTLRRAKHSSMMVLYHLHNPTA

In the case of `O=C1C(Cc2ccc(O)c(Br)c2)CCCC1Cc1ccc(O)c(Br)c1` (centres unmarked) [2c, 2,6-Bis(3-bromo-4-hydroxybenzyl)cyclohexanone], the inhibition at 6 µM in test [1] stood at 83%.

Regarding `CC(=O)SCCNC(=O)CCNC(=O)[C@H](O)C(C)(C)COP(=O)(O)OP(=O)(O)OC[C@H]1O[C@@H](n2cnc3c(N)ncnc32)[C@H](O)[C@@H]1OP(=O)(O)O` [acetyl-CoA], the “colorimetric antibody-based HAT activity assay (EpiGentek P-4003), 450 nm” value in test [2] is “strip wells were incubated with acetyl-CoA and partially purified HAC1 catalytic domain”.
